Assay results published in ChEMBL document CHEMBL5543136, “Discovery of Novel Heterotricyclic Compounds as DNA-Dependent Protein Kinase (DNA-PK) Inhibitors with Enhanced Chemosensitivity, Oral Bioavailability, and the Ability to Potentiate Cancer Immunotherapy” (J Med Chem, 2024).
The source made the active and inactive calls. The calls are words filed in the database; no cut-off is given here.

Experiments:
[1] = tested on: CT26; test: Synergistic antiproliferative activity against mouse CT26 cells assessed as reduction in cell viability incubated for 48 hrs in presence of doxorubicin by CCK-8 assay; type: functional, cell-based; conditions: CT26, 48 h
[2] = Apparent volume of distribution in male Sprague-Dawley rat at 10 mg/kg, po measured after 48 hrs by LC-MS/MS analysis; type: ADME, organism-based; conditions: in vivo
[3] = tested on: CT26; test: Antitumor activity against mouse CT26 cells implanted in BALB/c mouse assessed as reduction in tumor weight at 10 mg/kg, ip administered once daily for 21 days relative to control; type: functional; design: scale not given: the % may be the effect or the level left; conditions: time 21 day
[4] = Toxicity in BALB/c mouse implanted with mouse CT26 cells assessed as death at 10 mg/kg, ip QD co-administered with doxorubicin for 21 days; type: organism-based; conditions: in vivo, 504 h, time 21 day
[5] = AUC (0 to infinity) in male Sprague-Dawley rat at 2 mg/kg, iv measured after 48 hrs by LC-MS/MS analysis; type: ADME, organism-based; conditions: in vivo
[6] = Toxicity in BALB/c mouse implanted with mouse CT26 cells assessed as weight loss at 10 mg/kg, ip administered once daily for 21 days; type: organism-based; conditions: in vivo, 504 h, time 21 day
[7] = tested on: Jurkat; test: Induction of cell cycle arrest in human Jurkat cells assessed as increase in G2/M phase cells at 1 uM incubated for 24 hrs in presence of doxorubicin by PI staining based flow cytometric analysis; type: functional
[8] = tested on: CT26; test: Antiproliferative activity against mouse CT26 cells assessed as reduction in cell viability incubated for 48 hrs by CCK-8 assay; type: functional, cell-based; conditions: CT26, 48 h
[9] = tested on: B16-F10; test: Antitumor activity against mouse B16-F10 cells implanted in C57BL/6 mouse assessed as tumor growth inhibition at 10 mg/kg, ip QD co-administered with SWS1 for 13 days relative to control; type: functional; conditions: B16-F10, 312 h, time 13 day, read-out: TGI
[10] = tested on: CT26; test: Antitumor activity against mouse CT26 cells implanted in BALB/c mouse assessed as reduction in tumor volume at 10 mg/kg, ip administered once daily for 21 days relative to control; type: functional; design: scale not given: the % may be the effect or the level left; conditions: time 21 day
[11] = Oral bioavailability in male Sprague-Dawley rat at 10 mg/kg measured after 48 hrs by LC-MS/MS analysis; type: ADME, organism-based; conditions: in vivo
[12] = Toxicity in C57BL/6 mouse implanted with mouse B16-F10 cells assessed as effect on body weight at 10 mg/kg, ip QD co-administered with SWS1 for 13 days; type: organism-based; conditions: in vivo, 312 h, time 13 day
[13] = Cmax in male Sprague-Dawley rat at 10 mg/kg, po measured after 48 hrs by LC-MS/MS analysis; type: ADME, organism-based; conditions: in vivo
[14] = Half-life in male Sprague-Dawley rat at 2 mg/kg, iv measured after 48 hrs by LC-MS/MS analysis; type: ADME, organism-based; conditions: in vivo
[15] = C0 in male Sprague-Dawley rat at 2 mg/kg, iv measured after 48 hrs by LC-MS/MS analysis; type: ADME, organism-based; conditions: in vivo
[16] = tested on: Jurkat; test: Antiproliferative activity against human Jurkat cells assessed as reduction in cell viability incubated for 48 hrs by CCK-8 assay; type: functional, cell-based
[17] = Selectivity ratio of IC50 for antiproliferative activity against human Jurkat cells to IC50 for synergistic antiproliferative activity against human Jurkat cells in presence of doxorubicin; type: functional
[18] = Toxicity in C57BL/6 mouse implanted with mouse B16-F10 cells assessed as change in liver histopathology at 10 mg/kg, ip administered once daily for 13 days by H&E staining based analysis; type: organism-based; conditions: in vivo, 312 h, time 13 day
[19] = AUC (0 to t) in male Sprague-Dawley rat at 10 mg/kg, po measured after 48 hrs by LC-MS/MS analysis; type: ADME, organism-based; conditions: in vivo
[20] = AUC (0 to infinity) in male Sprague-Dawley rat at 10 mg/kg, po measured after 48 hrs by LC-MS/MS analysis; type: ADME, organism-based; conditions: in vivo
[21] = tested on: B16-F10; test: Antiproliferative activity against mouse B16-F10 cells assessed as reduction in cell viability incubated for 48 hrs by CCK-8 assay; type: functional, cell-based; conditions: B16-F10, 48 h
[22] = Selectivity ratio of IC50 for antiproliferative activity against mouse CT26 cells to IC50 for synergistic antiproliferative activity against mouse CT26 cells in presence of doxorubicin; type: functional

Cc1cc2cccnc2cc1Nc1ncc2c(n1)N(C1CCOCC1)Cc1nncn1-2
IC50 [1]: 9.7 µM | Vz [2]: 38.8 L/kg | Activity [3]: 30.8% | Activity [4]: Non-Toxic | AUC(0-inf) [5]: 605 ng·h/mL | Activity [6]: Non-Toxic | Activity [7]: Active | IC50 [8]: 4.1 µM | inhibition in vivo at 10 mg/kg [9]: 63.2% | Activity [10]: 32.1% | bioavailability [11]: 31.8% | Activity [12]: Non-Toxic | Cmax [13]: 324 ng/mL | half-life [14]: 1 h | C0 at 48 h [15]: 1000 ng/mL | IC50 [16]: 0.6 µM | Ratio IC50 [17]: 30 | Activity [18]: Non-Toxic | AUC(0-t) at 48 h [19]: 950 ng·h/mL | AUC(0-inf) [20]: 962 ng·h/mL | IC50 [21]: 10.3 µM | Ratio IC50 [22]: 4.5
